Laboratory results: PMC2206373, “Identification of an altered peptide ligand based on the endogenously presented, rheumatoid arthritis-associated, human cartilage glycoprotein-39(263–275) epitope: an MHC anchor variant peptide for immune modulation” (Arthritis Research & Therapy, 2007)
No end group written: not given here.

Key:
[1] = test system: T cell hybridoma 8B12; experiment: T hybridoma 8B12 IL-2 response; assay type: cell-based, mouse; details: for Hybridoma response (SI) 8B12: IL-2 by ELISA after 48 h, peptide 10 μg/ml, SI > 2 positive
Method: (§1) The T cell hybridomas, provided by G Sonderstrup (Stanford, CA, USA), were generated as described. In brief, human CD4, HLA-DRA*101/HLA-DRB*0401 triple transgenic (HLA-DR4trg) mice (devoid of I-Aβ) were immunized in the footpad with 50 μg of purified HC gp-39 mixed in incomplete Freund's adjuvant (IFA). Draining lymph nodes were isolated and T-cell hybridomas were generated by polyethylene glycol fusion of primed and in vitro antigen-restimulated lymph node cells with the AKR BW5147 fusion partner. Following fusion, growth-positive hybridoma wells were screened for reactivity to HC gp-39 and a set of 55 peptides (16 amino acids in length) covering the entire HC gp-39 sequence. HLA-DR4(B1*0401)-restricted hybridomas responsive to both the HC gp-39 protein and the immunodominant epitope 263–275 of HC gp-39 (for example, 5G11, 8B12, 14G11 and 20H5) were cloned, subcloned, characterised and selected for further study.
(§2) HC gp-39-specific IL-2 production by T hybridomas was measured in wells of round-bottomed microtiter plates. Hybridoma cells (2 to 5 × 10^4) and irradiated APC (0.5 to 1 × 10^5; 12,000 to 16,000 RAD) from the B lymphoblastoid cell line (BLCL) carrying the DRB1*0401 specificity were incubated in 150 μl volumes. Antigen was added in 50 μl volumes to duplicate wells. After 48 h, 100 μl of the culture supernatant was assayed for IL-2 production using a sandwich ELISA with Pharmingen antibodies specific for mouse IL-2. The antigen sensitivity of the hybridomas to both peptide and protein was determined (Figure 2). […] In later assays, an excess of peptide or APL (10 μg/ml), inducing maximal responses in all hybridomas, was tested.

[2] = test system: T cell hybridoma 5G11; experiment: T hybridoma 5G11 IL-2 response; assay type: cell-based, mouse; details: for Hybridoma response (SI) 5G11: IL-2 by ELISA after 48 h, peptide 10 μg/ml, SI > 2 positive
Method: as §1, §2

[3] = Figure 2a dose response, IL-2 ELISA after 48 h

## RSFTLASSETGVG [Compound 1, HC gp-39(263–275)]
[1]; Figure 1, IL-2 production, DRB1*0401 BLCL as APC, duplicate or triplicate, background 16,288 counts, ±30% of WT response = super/partial agonist
  T hybridoma (SI) 8B12: 19 SI
[1]; [3]
  Peptide concentration for half maximal stimulation (IL-2), 8B12: 0.21 µg/mL
[1]; Table 1, DRB1*0401 BLCL as APC, background 7,470 counts, representative of at least three experiments
  Hybridoma response (SI) 8B12: 9 SI
[1]; Table 2, DRB1*0401 BLCL as APC, background 8,773 counts, SD not above 15%
  Hybridoma response (SI) 8B12: 39 SI
[2]; Figure 1, IL-2 production, DRB1*0401 BLCL as APC, duplicate or triplicate, background 29,203 counts, ±30% of WT response = super/partial agonist
  T hybridoma (SI) 5G11: 29 SI
[2]; [3]
  Peptide concentration for half maximal stimulation (IL-2), 5G11: 2 µg/mL
[2]; Table 1, DRB1*0401 BLCL as APC, background 8,147 counts, representative of at least three experiments
  Hybridoma response (SI) 5G11: 13 SI
[2]; Table 2, DRB1*0401 BLCL as APC, background 17,238 counts, SD not above 15%
  Hybridoma response (SI) 5G11: 17 SI
